The source of these data is patent publication US9556111B2, “Tertiary amines for use in the treatment of cardiac disorders” (Universitetet I Oslo, priority 2012, dated 2017).

The test system of data set [1] is PLB-Ser^16 phosphorylation. As to the kind of experiment: PLB-Ser16 phosphorylation in isoproterenol-stimulated rat neonatal cardiomyocytes (western blot). The class given is cell-based. The following applies: for Effect on PLB phosphorylation in cardiomyocytes / effect on PLB phosphorylation: rat neonatal cardiomyocytes; for Effect on PLB phosphorylation in cardiomyocytes: compounds 24 hours prior isoproterenol (100 nM, 5 minutes); for IC50: Rattus norvegicus, Cardiomyocyte, read-out: half-maximal effect, inhibition of phospholamban phosphorylation; for effect on PLB phosphorylation: Example 53. As to the method: FIG. 7: Disruption of the AKAP18δ-PLB complex influences PLB-Ser^16 phosphorylation. Rat neonatal cardiomyocytes treated with compounds 24 hours prior stimulation with isoproterenol (100 nM, 5 minutes).
(§1) FIG. 9: Disruption of the AKAP18δ-PLB complex influences PLB-Ser^16 phosphorylation. Rat neonatal cardiomyocytes treated with compound 2g (A) or 3d (C) 24 hours prior stimulation with isoproterenol (100 nM, 5 minutes). Rat adult cardiomyocytes treated with compound 2g (B) 1 hour prior to stimulation with isoproterenol (10 nM, 5 minutes). The histograms show levels of phosphorylated Ser^16-PLB quantified by densitometry on Western blots (relative to actin levels).
Based on data from studies in cardiomyocytes assay using a peptide that blocks AKAP18δ-PLB interaction, it was expected that effective compounds would also cause disruption of the AKAP18δ-PLB complex and decrease PLB-Ser^16 phosphorylation (Lygren et al. in EMBO Reports, volume 8, issue 11, page 1061-1067 (2007). A small selection of hits from the derivatized compounds were tested in this cell-based assay, performed as described in Lygren et al.
Briefly, compounds were added to primary cultures of rat neonatal cardiomyocytes were added compounds about 24 hour prior stimulation with isoproterenol, and amount of phosphorylated Ser^16-PLB was analyzed by western blotting using a pSer^16-PLB phosphospecific antibody. Actin was used as a loading control.
Rat neonatal cardiomyocytes treated with compounds 24 hours prior stimulation with isoproterenol (100 nM, 5 minutes).

The subject of data set [2] is metabolically active cells. As to the kind of experiment: Cell viability luminescence assay. The class given is cell-based. The conditions noted are these: 24 hours incubation. On the procedure: Compound toxicity was measured in a luminescence assay that gives a signal proportional to the amount of metabolically active cells in the sample; the assay was performed as described by the supplier. All synthesized compounds were tested in the viability assay, and viability was registered at 24 hours and 72 hours.

The subject of data set [3] is PLB-Ser^16 phosphorylation. As to the kind of experiment: PLB-Ser16 phosphorylation in isoproterenol-stimulated rat adult cardiomyocytes. The following applies: Cardiomyocyte, 1 hour prior isoproterenol (10 nM, 5 minutes), read-out: half-maximal effect, inhibition of phospholamban phosphorylation. The class given is cell-based. As to the method:
as §1
Following on Example 53, two compounds, 2g and 3d (FIGS. 9A.B and 9C, respectively), were tested in more detail for their ability to interfere with phosphorylation of phospholamban after stimulation of neonatal (FIGS. 9A and 9C) or adult (FIG. 9B) primary cultures of cardiomyocytes.

The target in data set [4] is SERCA2 (Rattus norvegicus (Rat), UniProt P11507). Nature of the data set: Patch clamp based SERCA2 activity assay in intact adult rat cardiomyocytes. The conditions noted are these: 10 uM mesylate salt, cell dialysis in the presence of cAMP, preliminary data. As to the method: FIG. 10: Compound 2g regulates SERCA2-activity. A novel patch clamp based technique was performed to directly assess SERCA-activity independently of receptor stimulation in intact cardiomyocytes. By dialyzing cardiomyocytes with a fixed level of cAMP with and without presence of compound 2g, preliminary data indicates ability of compound 2g to regulate SERCA2-activity in intact adult cardiomyocytes.
Adult rat cardiomyocytes were isolated and perfused with external solution (NaCl-125, CsCl 20, D-glucose 5, MgCl2 1, CaCl2 1.8, Hepes 10, 4-aminopyridine 5, probenecid 2, pH 7.4 by NaOH). […] Whole-cell Ca fluorescence measured from voltage-clamped cells was performed with Cairn Research Optoscan Monochromator (Excitation 488 nm, emission 515 nm long pass) (Cain Research Ltd., Faverham, UK). By applying 100 ms square voltage step from −45 to 0 mV at 0.125 Hz by an Axoclamp 2B amplifier (Axon Instruments, Foster City, Calif., USA), basal Ca transients were recorded, and tau values were obtained by monoexponential fitting of the Ca^2+ extrusion phase from regular transients (τ) and caffeine transients (τcaff) after rapid applications of 10 mM caffeine. SERCA2 rate constant were calculated as: k_SERCA=1/τ−1/τcaff.
Background: In patch-clamp work, channel activity is measured electrically.

The nature of data set [5]: Aqueous solubility of tribenzylamine and salts quantified by HPLC (AUC). The following applies: HPLC area under curve. The class given is physicochemical. On the procedure:
Tribenzylamine and the corresponding salts were dissolved in water and the solubility was quantified (area under curve (AUC)) by HPLC
Solubility of Tribenzylamine and its Corresponding HCl and Mesylate Salts, Tested on HPLC.

[6] abbreviates: 24 hours prior isoproterenol (100 nM, 5 minutes).

On to `Oc1ccc(O)c(CN(Cc2ccncc2)Cc2cc(O)ccc2O)c1` [Compound 2b, 2,2′-(((pyridin-4-ylmethyl)azanediyl)bis(methylene))bis(benzene-1,4-diol)], for which the “Effect on PLB phosphorylation in cardiomyocytes” value (“Effect … in cardiomyocytes” below) in data set [1] is on record as “−”. The “Viability (100 μM) 24 hours” value in data set [2] was found to be 0.10.
As for `COC(=O)c1ccc(CN(Cc2ccccc2)Cc2ccc(C(=O)OC)cc2)cc1` [Compound 2f, dimethyl 4,4′-((benzylazanediyl)bis(methylene))dibenzoate], the “Viability (100 μM) 24 hours” value in data set [2] came to 0.92.
As for `CN(C)c1ccc(CN(Cc2ccccc2)Cc2ccc(N(C)C)cc2)cc1` [Compound 2g, 4-((benzyl(4-(dimethylamino)benzyl)amino)methyl)-N,N-dimethylaniline], in data set [1], the IC50 was roughly 40 µM and the “Effect … in cardiomyocytes” value is listed as “++”. The “effect on PLB phosphorylation” value in data set [1] (setting [6]) is “concentration dependent inhibition of PLB-phosphorylation”. Further, the IC50 in data set [3] is roughly 100 µM. In data set [2], the “Viability (100 μM) 24 hours” value was 0.56. For the same compound, in data set [4], the SERCA2 activity result is recorded as “increased SERCA2 activity”.
As to `CC(c1ccccc1)N(Cc1ccc(N(C)C)cc1)Cc1ccc(N(C)C)cc1` (stereo not drawn) [Compound 2h, 4-(((4-(dimethylamino)benzyl)(1-phenylethyl)amino)methyl)-N,N-dimethylaniline], in data set [2], the “Viability (100 μM) 24 hours” value worked out at 0.91.
For the compound `CC(C)(C)c1ccc(CN(Cc2ccncc2)Cc2ccc(F)cc2)cc1` [Compound 3a, N-(4-(tert-butyl)benzyl)-N-(4-fluorobenzyl)-1-(pyridin-4-yl)methanamine], the “Viability (100 μM) 24 hours” value in data set [2] worked out at 0.79.
As for `Oc1ccc(O)c(CN(Cc2ccncc2)Cc2ccc(F)cc2)c1` [Compound 3b, 2-(((4-fluorobenzyl)(pyridin-4-ylmethyl)amino)methyl)benzene-1,4-diol], in data set [2], the “Viability (100 μM) 24 hours” value is recorded as 0.03.
With `CN(C)c1ccc(CN(Cc2ccccc2)CC(c2ccccc2)c2ccccc2)cc1` [Compound 3c, 4-((benzyl(2,2-diphenylethyl)amino)methyl)-N,N-dimethylaniline], the “effect on PLB phosphorylation” value in data set [1] (setting [6]) is on record as “somewhat weaker than that of 2g”. Besides, the “Effect … in cardiomyocytes” value in data set [1] was “+”. Besides, the “Viability (100 μM) 24 hours” value in data set [2] amounted to 0.74.
Consider `CN(C)c1ccc(CN(Cc2ccccc2)Cc2ccc3c(c2)CCO3)cc1` [Compound 3d], for which the IC50 in data set [1] (neonatal cardiomyocytes, 24 hours prior isoproterenol (100 nM, 5 minutes)) is roughly 100 µM. In addition, the “effect on PLB phosphorylation” value in data set [1] (setting [6]) is reported as “did not appear to have an effect”. Further, the “Effect … in cardiomyocytes” value in data set [1] is given as “−”. Moreover, the “Viability (100 μM) 24 hours” value in data set [2] amounted to 0.58.
For `COC(=O)c1ccc(CN(Cc2ccccc2)Cc2ccc(F)cc2)cc1` [Compound 3e, methyl 4-((benzyl(4-fluorobenzyl)amino)methyl)benzoate], the “Viability (100 μM) 24 hours” value in data set [2] was determined as 0.57.
Consider `O=C(O)c1ccc(CN(Cc2ccccc2)Cc2ccc(F)cc2)cc1` [Compound 3f, 4-((benzyl(4-fluorobenzyl)amino)methyl)benzoic acid], for which, in data set [1] (setting [6]), the “effect on PLB phosphorylation” value is listed as “did not appear to have an effect”. Further, in data set [1], the “Effect … in cardiomyocytes” value is listed as “+”. Also, the “Viability (100 μM) 24 hours” value in data set [2] is reported as 0.98.
Consider `Fc1ccc(CN(Cc2ccccc2)Cc2ccc(-c3ccccc3-c3nn[nH]n3)cc2)cc1` [Compound 3g, 1-(2′-(2H-tetrazol-5-yl)-[1,1′-biphenyl]-4-yl)-N-benzyl-N-(4-fluorobenzyl)methanamine], for which the “Viability (100 μM) 24 hours” value in data set [2] came out at 0.80.
In the case of `c1ccc(CN(Cc2ccccc2)Cc2ccccc2)cc1` [Tribenzylamine], in data set [5] (HCl salt dissolved in water), the “AUC HCl salt” value is 406 mAu*s. Besides, in data set [5] (free base dissolved in water), the “AUC Free base” value is on record as “≈0 mAu*s”. The “AUC Mesylate salt” value in data set [5] (mesylate salt dissolved in water) stood at 1975 mAu*s.
